The values below are quoted from earlier work in patent US20140044780A1, “Extended-Release Levetiracetam and Method of Preparation” (PharmTak, Inc., priority 2012, published 2014).

Regarding `CC[C@@H](C(N)=O)N1CCCC1=O` (single isomer, unassigned) [Levetiracetam], the Solubility in water is on record as 104 g/100 mL.
